Like-named read-outs stand apart in the source and are kept apart here. Blank lines part the entries; values can stand above or below the compound they belong to.
Key:
[1] = test system: skeletal muscle sodium channels (native Nav1.4); test: Tonic and use-dependent block of sodium currents; type: cell-based, Rana Esculenta; conditions: for eudismic ratio [IC50 distomer/IC50 eutomer]: 10 Hz use-dependent block
hNav1.4 = conditions: heterologously expressed; cited from earlier work
pain threshold = conditions: rat, oxaliplatin-induced neuropathic pain; cited from earlier work
hNav1.7 = conditions: heterologously expressed; cited from earlier work
[2] = test system: skeletal muscle sodium channels (native Nav1.4); conditions: use-dependent block at 10 Hz frequency; cited from earlier work
human serum albumin = conditions: cited from earlier work

eudismic ratio [IC50 distomer/IC50 eutomer] [1]: 1.3
Structure (SMILES): Cc1cccc(C)c1NC(=O)C1CCN(Cc2ccccc2)C1 (racemic) [To10, 1-benzyl-N-(2,6-dimethylphenyl)pyrrolidine-3-carboxamide]
use-dependent block of hNav1.4 (hNav1.4): potent use-dependent blocker
reverting the reduction of the pain threshold (pain threshold): more potent than tocainide
use-dependent block of hNav1.7 (hNav1.7): potent use-dependent blocker

eudismic ratio [IC50 distomer/IC50 eutomer] [1]: greater than 3
Structure (SMILES): Cc1cccc(C)c1NC(=O)C1CCCN1Cc1ccccc1 (racemic) [To11, 1-benzyl-N-(2,6-dimethylphenyl)pyrrolidine-2-carboxamide]

Structure (SMILES): Cc1cccc(C)c1NC(=O)C1CCCN1 (stereo not drawn) [To5, N-(2,6-dimethylphenyl)pyrrolidine-2-carboxamide]
eudismic ratio [IC50 distomer/IC50 eutomer] [2]: > 3

Structure (SMILES): O=C(Nc1ccccc1)C1CCN(Cc2ccccc2)C1 (stereo not drawn) [To13, 1-benzyl-N-phenylpyrrolidine-3-carboxamide]
fold less potent than To10 during use-dependent blockade [1]: 4–5 fold

Structure (SMILES): O=C(Nc1ccc(Cl)cc1)C1CCN(Cc2ccccc2)C1 (stereo not drawn) [To14, 1-benzyl-N-(4-chlorophenyl)pyrrolidine-3-carboxamide]
fold less potent than To10 during use-dependent blockade [1]: 4–5 fold

Structure (SMILES): Cc1cc(C)c(C)c(NC(=O)C2CCN(Cc3ccccc3)C2)c1C (stereo not drawn) [To15, 1-benzyl-N-(2,3,5,6-tetramethylphenyl)pyrrolidine-3-carboxamide]
binding activity to human serum albumin (human serum albumin): high binding activity

Structure (SMILES): Cc1cccc(C)c1NC(=O)C1CN(Cc2ccccc2)CCN1 (stereo not drawn) [To32, 4-benzyl-N-(2,6-dimethylphenyl)piperazine-2-carboxamide]
ratio IC50TB/IC50 UDB ([1]; tonic block vs use-dependent block): around 12

Structure (SMILES): Cc1cccc(C)c1NC(=O)C1CCCCN1Cc1ccccc1 (stereo not drawn) [To35, 1-benzyl-N-(2,6-dimethylphenyl)piperidine-2-carboxamide]
fold less potent than To31 in tonic block ([1]; tonic block): 4 fold
fold less potent than To31 in use-dependent block ([1]; use-dependent block): 8 fold

Source: article PMC3314985 (Neuromuscular Disorders, 2012)
